# Laboratory results published in article PMC7602263, “Exploring the Use of Helicogenic Amino Acids for Optimising Single Chain Relaxin-3 Peptide Agonists” (Biomedicines, 2020).
# Read-outs that look alike come from different tables or passages of the source. Where a SMILES comes first, the peptide text is derived from it. Bridges are numbered along the chain shown (N, C = ends). Where no end group is shown, it is not given here. [ ]: non-standard residue; d: D form. S5 = C=CCCC[C@](C)(N)C(=O)O
# Assays:
# [1] = target: T1, RXFP3 (Homo sapiens, UniProt Q9NSD7); assay: Competition binding assay with Eu-labelled R3 B1-22R on CHO-K1 cells stably expressing RXFP3; details: read-out: pKi [logM] (converted)
# T1 construct: expressed in transfected cells; host or cells: CHO-K1
# T1 sequence (Q9NSD7 1-469): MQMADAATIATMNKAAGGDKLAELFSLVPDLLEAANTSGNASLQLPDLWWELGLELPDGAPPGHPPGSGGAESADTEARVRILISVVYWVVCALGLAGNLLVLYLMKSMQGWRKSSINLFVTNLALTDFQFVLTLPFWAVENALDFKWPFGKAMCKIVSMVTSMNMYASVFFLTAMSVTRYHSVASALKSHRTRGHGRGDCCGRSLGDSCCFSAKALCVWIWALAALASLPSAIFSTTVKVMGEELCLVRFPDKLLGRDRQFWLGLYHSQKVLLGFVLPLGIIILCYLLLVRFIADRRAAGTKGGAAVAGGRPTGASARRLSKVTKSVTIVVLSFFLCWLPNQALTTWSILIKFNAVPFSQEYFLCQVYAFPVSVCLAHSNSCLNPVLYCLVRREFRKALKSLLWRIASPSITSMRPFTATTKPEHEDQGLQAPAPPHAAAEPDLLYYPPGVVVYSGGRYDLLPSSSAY
# Protocol: Determination of binding affinity in this study was carried out as previously described. Briefly, CHO-K1 cells stably expressing RXFP3 [38] were treated with 5 nM Eu-labelled R3 B1-22R with increasing concentrations of novel analogues. Fluorescence measurement were recorded with 340 nm excitation and 614 nm emission wavelengths. Assays were conducted in triplicates and independently repeated at least three times. […] Statistical analyses were conducted using 1-way ANOVA with uncorrected Fisher’s least square difference in GraphPad Prism 8.0.
# (§1) To determine their binding affinity, the ability of increasing concentration of analogues to compete with europium labelled R3 B1-22R were measured using CHO cells stably expressing RXFP3 [37]. Their potency at RXFP3 was measured by inhibition of cAMP accumulation induced by forskolin, as RXFP3 couples to an inhibitory G-protein.
# [2] = target: T1, RXFP3; assay: cAMP activity assay: inhibition of forskolin-induced cAMP accumulation in CHO-K1 cells stably expressing RXFP3; type: cell-based; details: CHO-K1 cells stably expressing RXFP3; inhibition of cAMP accumulation stimulated by 5 μM forskolin; mean ± SEM, triplicates, three independent experiments; SEM
# Protocol: CHO-KI cells stably expressing RXFP3 were used to study the ability of the novel analogues to inhibit forskolin-induced cAMP accumulation. Assays were conducted as previously described. Briefly, 5 μM forskolin was used to stimulate the cells and increasing concentrations of the novel analogues were added to measure the dose-dependent reduction in the cAMP response via activation of the Gi/o-coupled RXFP3. Each analogue was tested in triplicates and each experiment was independently repeated three times. Data are presented as mean ± SEM and were analysed using GraphPad Prism 8.0. Statistical analyses were conducted using 1-way ANOVA and uncorrected Fisher’s least square difference.
# as §1
# [3] = target: T1, RXFP3; parameters: method as in 2 sources, one per row (each row's own in cited_ref): ref [37] = [37]; PMID 25792111; doi:10.1007/s00726-015-1961-x; 37. Haugaard-Kedström L.M. Wong L.L. Bathgate R.A. Rosengren K.J. Synthesis and pharmacological characterization of a europium-labelled single-chain antagonist for binding studies of the relaxin-3 rec ||| ref [28] = [28]; PMID 27464307; doi:10.1021/acs.jmedchem.6b00265; 28. Hojo K. Hossain M.A. Tailhades J. Shabanpoor F. Wong L.L. Ong-Palsson E.E. Kastman H.E. Ma S.K. Gundlach A.L. Rosengren K.J. Development of a single-chain peptide agonist of the relaxin-3 receptor; details: read-out: Kd for Eu-R3 B1-22R; Kd of the Eu-labelled tracer at RXFP3, used to calculate pKi values; assay as previously described; ref [37]; cited from earlier work
Compound,Ki [1],EC50 [2],Ki ([1]; SEM),Kd [3]
CC[C@H](C)[C@H](NC(=O)[C@H](Cc1ccccc1)NC(=O)C(C)(C)NC(=O)[C@H](CCCNC(=N)N)NC(=O)CNC(=O)[C@H](CO)NC(C)=O)C(=O)N[C@@H](CCCNC(=N)N)C(=O)NC(C)(C)C(=O)NC(C)(C)C(=O)N[C@H](C(=O)N[C@@H](Cc1ccccc1)C(=O)NC(C)(C)C(=O)N[C@@H](CO)C(=O)NCC(=O)NCC(=O)N[C@@H](CO)C(=O)N[C@@H](CCCNC(=N)N)C(=O)N[C@@H](Cc1c[nH]c2ccccc12)C(=O)O)[C@@H](C)CC [Analogue 10] (HELM PEPTIDE1{[ac].S.G.R.[Aib].F.I.R.[Aib].[Aib].I.F.[Aib].S.G.G.S.R.W}$$$$V2.0),> 10000 nM,3240 nM,,
C=CCCC[C@](C)(NC(=O)[C@H](CCCNC(=N)N)NC(=O)CNC(=O)[C@H](CO)NC(C)=O)C(=O)N[C@@H](Cc1ccccc1)C(=O)N[C@H](C(=O)N[C@@H](CCCNC(=N)N)C(=O)N[C@@](C)(CCCC=C)C(=O)N[C@H](C(=O)N[C@H](C(=O)N[C@@H](Cc1ccccc1)C(=O)N[C@H](C(=O)N[C@@H](CO)C(=O)NCC(=O)NCC(=O)N[C@@H](CO)C(=O)N[C@@H](CCCNC(=N)N)C(=O)N[C@@H](Cc1c[nH]c2ccccc12)C(=O)O)[C@@H](C)O)[C@@H](C)CC)C(C)C)[C@@H](C)CC [Analogue 11] (HELM PEPTIDE1{[ac].S.G.R.[C=CCCC[C@](C)(N[*:1])C(=O)[*:2]].F.I.R.[C=CCCC[C@](C)(N[*:1])C(=O)[*:2]].V.I.F.T.S.G.G.S.R.W}$$$$V2.0),,41.7 nM,933 nM,
CC[C@H](C)[C@@H]1NC(=O)[C@H](Cc2ccccc2)NC(=O)[C@@](C)(NC(=O)[C@H](CCCNC(=N)N)NC(=O)CNC(=O)[C@H](CO)NC(=O)[C@H](CCCCN)NC(=O)[C@H](CCCCN)NC(=O)[C@H](CCCCN)NC(=O)[C@@H](N)CCCCN)CCCC=CCCC[C@@](C)(C(=O)N[C@H](C(=O)N[C@H](C(=O)N[C@@H](Cc2ccccc2)C(=O)N[C@H](C(=O)N[C@@H](CO)C(=O)NCC(=O)NCC(=O)N[C@@H](CO)C(=O)N[C@@H](CCCNC(=N)N)C(=O)N[C@@H](Cc2c[nH]c3ccccc23)C(=O)O)[C@@H](C)O)[C@@H](C)CC)C(C)C)NC(=O)[C@H](CCCNC(=N)N)NC1=O [Analogue 12] (H-KKKKSGR[S5]FIR[S5]VIFTSGGSRW-OH; staple 8-12),,6.46 nM,182 nM,
"CC[C@H](C)[C@@H]1NC(=O)[C@H](Cc2ccccc2)NC(=O)[C@@H](NC(=O)[C@H](CCCNC(=N)N)NC(=O)CNC(=O)[C@@H](N)CO)CSCC(=O)CSC[C@@H](C(=O)N[C@H](C(=O)N[C@H](C(=O)N[C@@H](Cc2ccccc2)C(=O)N[C@H](C(=O)N[C@@H](CO)C(=O)NCC(=O)NCC(=O)N[C@@H](CO)C(=O)N[C@@H](CCCNC(=N)N)C(=O)N[C@@H](Cc2c[nH]c3ccccc23)C(=O)O)[C@@H](C)O)[C@@H](C)CC)C(C)C)NC(=O)[C@H](CCCNC(=N)N)NC1=O [Analogue 14] (HELM PEPTIDE1{S.G.R.C.F.I.R.C.V.I.F.T.S.G.G.S.R.W}|CHEM1{[O=C(C[*:1])C[*:2]]}$PEPTIDE1,CHEM1,4:R3-1:R1|PEPTIDE1,CHEM1,8:R3-1:R2$$$V2.0)",> 10000 nM,6170 nM,,
"CC[C@H](C)[C@@H]1NC(=O)[C@H](Cc2ccccc2)NC(=O)[C@@H](NC(=O)[C@H](CCCNC(=N)N)NC(=O)CNC(=O)[C@H](CO)NC(C)=O)CSCC(=O)CSC[C@@H](C(=O)N[C@H](C(=O)N[C@H](C(=O)N[C@@H](Cc2ccccc2)C(=O)N[C@H](C(=O)N[C@@H](CO)C(=O)NCC(=O)NCC(=O)N[C@@H](CO)C(=O)N[C@@H](CCCNC(=N)N)C(=O)N[C@@H](Cc2c[nH]c3ccccc23)C(=O)O)[C@@H](C)O)[C@@H](C)CC)C(C)C)NC(=O)[C@H](CCCNC(=N)N)NC1=O [Analogue 15] (HELM PEPTIDE1{[ac].S.G.R.C.F.I.R.C.V.I.F.T.S.G.G.S.R.W}|CHEM1{[O=C(C[*:1])C[*:2]]}$PEPTIDE1,CHEM1,5:R3-1:R1|PEPTIDE1,CHEM1,9:R3-1:R2$$$V2.0)",,4790 nM,4790 nM,
"CC[C@H](C)[C@@H]1NC(=O)[C@H](Cc2ccccc2)NC(=O)[C@@H](NC(=O)[C@H](CCCNC(=N)N)NC(=O)CNC(=O)[C@@H](N)CO)CSCc2cccc(c2)CSC[C@@H](C(=O)N[C@H](C(=O)N[C@H](C(=O)N[C@@H](Cc2ccccc2)C(=O)N[C@H](C(=O)N[C@@H](CO)C(=O)NCC(=O)NCC(=O)N[C@@H](CO)C(=O)N[C@@H](CCCNC(=N)N)C(=O)N[C@@H](Cc2c[nH]c3ccccc23)C(=O)O)[C@@H](C)O)[C@@H](C)CC)C(C)C)NC(=O)[C@H](CCCNC(=N)N)NC1=O [Analogue 16] (HELM PEPTIDE1{S.G.R.C.F.I.R.C.V.I.F.T.S.G.G.S.R.W}|CHEM1{[c1cc(C[*:1])cc(C[*:2])c1]}$PEPTIDE1,CHEM1,4:R3-1:R1|PEPTIDE1,CHEM1,8:R3-1:R2$$$V2.0)",,1050 nM,1000 nM,
"CC[C@H](C)[C@@H]1NC(=O)[C@H](Cc2ccccc2)NC(=O)[C@@H](NC(=O)[C@H](CCCNC(=N)N)NC(=O)CNC(=O)[C@H](CO)NC(C)=O)CSCc2cccc(c2)CSC[C@@H](C(=O)N[C@H](C(=O)N[C@H](C(=O)N[C@@H](Cc2ccccc2)C(=O)N[C@H](C(=O)N[C@@H](CO)C(=O)NCC(=O)NCC(=O)N[C@@H](CO)C(=O)N[C@@H](CCCNC(=N)N)C(=O)N[C@@H](Cc2c[nH]c3ccccc23)C(=O)O)[C@@H](C)O)[C@@H](C)CC)C(C)C)NC(=O)[C@H](CCCNC(=N)N)NC1=O [Analogue 17] (HELM PEPTIDE1{[ac].S.G.R.C.F.I.R.C.V.I.F.T.S.G.G.S.R.W}|CHEM1{[c1cc(C[*:1])cc(C[*:2])c1]}$PEPTIDE1,CHEM1,5:R3-1:R1|PEPTIDE1,CHEM1,9:R3-1:R2$$$V2.0)",,851 nM,1050 nM,
"Eu-R3 B1-22R: europium-labelled single-chain antagonist used as tracer in the RXFP3 binding assay (RAAPYGVRLSGREFIRAVIFTSR; also: europium chelate label, attachment site not given here)",,,,27.9 ± 9.4 nM
